The values that follow come from article PMC6588697, “Lugdunin amplifies innate immune responses in the skin in synergy with host- and microbiota-derived factors” (Nature Communications, 2019).

Values joined by “and” are separate entries in the source; they are usually repeats but may differ in a detail not shown here. Equal values may be shown once.

Common to all, as to assay type: cell-based, human
For one experiment, the system named is PHKs. Kind of experiment: CXCL8 expression in PHKs (qRT-PCR, normalized to actin). The settings on record: PHKs, 5 h. The procedure: Fig. 1 Lugdunin sensitizes epithelial cells for innate immune defense. a Primary human keratinocytes (PHKs) were pretreated with S. epidermidis conditioned medium (CM), indicated lugdunin concentrations, or the combination of both for 20 h. Subsequently, cells were infected with S. aureus for 1.5 h followed by cell lysis and determination of colony-forming units (CFUs). Shown is one representative experiment of three independent experiments with six technical replicates ± s.e.m. n.s., not significant. b Dorsal skin of mice was pretreated with S. epidermidis CM, 1.5 µg lugdunin alone or in combination with S. epidermidis CM for 24 h. Subsequently, S. aureus CFUs were determined. Horizontal lines represent the mean of each group ± s.e.m. c PHKs were treated with 2 μM lugdunin or with S. epidermidis CM alone or in combination for 20 h and subsequently expression of indicated antimicrobial peptides (AMPs) (respective protein names in brackets) was analyzed and normalized to actin. Shown is one representative experiment of three independent experiments with two technical replicates ± s.e.m. d PHKs were treated with 2 µM lugdunin or 100 ng/mL Pam2Cys for 5 h and subsequently the concentration of indicated cytokines in the supernatant was analyzed by LEGENDplex^TM (BioLegend). Shown is one representative experiment of three independent experiments with two technical replicates ± s.e.m. e PHKs were treated with increasing concentrations of lugdunin or 100 ng/mL Pam2Cys or Pam3Cys for 5 h and subsequently expression of chemokine (C-X-C motif) ligand 8 (CXCL8) was analyzed and normalized to actin. Shown is one representative experiment of three independent experiments, each with two technical replicates ± s.e.m. f, g Indicated cells were treated with 2 µM lugdunin or 100 ng/mL Pam2Cys as a positive control for 5 h and subsequently the concentration of CXCL8 (f) and interleukin-1α (IL-1α) (g) in the supernatant was analyzed by LEGENDplex^TM (BioLegend) and enzyme-linked immunosorbent assay (ELISA) (R&D Systems). Shown is one representative experiment of three independent experiments with two technical replicates ± s.e.m. Significant differences to control treatments were analyzed by ordinary one-way analysis of variance (ANOVA) followed by Dunnett’s multiple comparisons test (*P < 0.05; **P < 0.01; ***P < 0.001; ****P < 0.0001). n.d. = not detected. Source data are provided as a Source Data file
Fig. 4 Lugdunin amplifies the commensal-induced chemokine (C-X-C motif) ligand (CXCL8) induction. a Primary human keratinocytes (PHKs) were either treated with 2 μM of human antimicrobial peptides (AMPs) (black bars) or lugdunin (blue bars), or 0.8 μM (pro)-gallidermin or nisin (black bars), or in combination with S. epidermidis conditioned medium (CM) (gray and red striped bars) for 5 h, and subsequently expression of CXCL8 was analyzed and normalized to actin. Shown is one representative experiment of three independent experiments with two technical replicates ± s.e.m. b PHKs were treated with 2 μM human AMPs, 2 μM lugdunin, 0.8 μM of the other bacteriocins (gray bars) or the correspondent peptide combinations (white bars), or 50 ng/mL Pam2Cys, 10 ng/mL IL-1α, or S. epidermidis CM as controls (black bars), for 5 h and subsequently expression of CXCL8 was analyzed and normalized to actin. Shown is one representative experiment of three independent experiments with two technical replicates ± s.e.m. Significant differences to control treatments were analyzed by ordinary one-way analysis of variance (ANOVA) followed by Dunnett’s multiple comparisons test (***P < 0.001; ****P < 0.0001). Source data are provided as a Source Data file
After 5 h or 20 h of peptide treatment, PHKs were washed once with PBS, followed by the addition of RNA lysis buffer directly into the well. Total RNA was extracted using the Nucleospin RNA Kit (Macherey-Nagel) according to the manufacturer’s protocol. […]
Background: In qPCR the cycle at which signal appears reflects the starting amount.

The test system of a further experiment is HNEpCs. Kind of experiment: CXCL8 expression in HNEpCs (qRT-PCR). The settings on record: 5 h, 100 ng/mL Pam2Cys or Pam3Cys, two technical replicates, sheet Supp Fig 1f. The procedure:
(§1) Quantitative reverse transcription-polymerase chain reaction (qRT-PCR) was performed in 10 µL reaction volume with SYBR^TM Green PCR Master Mix (Thermo Fisher) according to the manufacturer’s instructions using a LightCycler 96 (Roche Life Science). The initial denaturation step was at 95 °C for 5 min, followed by 40 cycles with 10 s each for the denaturation step at 95 °C, the annealing at individual temperature, and the elongation at 72 °C. Primer sequences and respective annealing temperatures are listed in Supplementary Table 1. […]
(§2) 31 g+h+i: HNEpCs (b), HTEpCs (c) or PBMCs (d) were treated with increasing
(§3) 32 concentrations of lugdunin (grey bars) or 100 ng/mL Pam2Cys or Pam3Cys (white
(§4) 33 bars) as positive controls for 5 hours and subsequently expression of CXCL8 was
(§5) 34 analyzed and normalized to actin. Black bar: medium control. Shown is one
(§6) 35 representative experiment of three independent experiments with two technical
(§7) 36 replicates +/-s.e.m. Significant differences to control treatments were analyzed by
(§8) 37 ordinary one-way ANOVA followed by Dunnett’s multiple comparisons test (*P<0.05; […]

The subject of a further experiment is PBMCs. Kind of experiment: CXCL8 expression in PBMCs (qRT-PCR). The settings on record: 5 h, 100 ng/mL Pam2Cys or Pam3Cys, two technical replicates, sheet Supp Fig 1h. The procedure: Quantitative reverse transcription-polymerase chain reaction (qRT-PCR) was performed in 10 µL reaction volume with SYBR^TM Green PCR Master Mix (Thermo Fisher) according to the manufacturer’s instructions using a LightCycler 96 (Roche Life Science). The initial denaturation step was at 95 °C for 5 min, followed by 40 cycles with 10 s each for the denaturation step at 95 °C, the annealing at individual temperature, and the elongation at 72 °C. Primer sequences and respective annealing temperatures are listed in Supplementary Table 1.
Human PBMCs were isolated from the peripheral blood of healthy donors upon obtaining informed consent by Ficoll-Histopaque (Biochrom) gradient centrifugation. Cells were washed once in PBS and adjusted to a cell number of 1 × 10^6 mL^−1 in RPMI-1640 medium (Gibco/Life Technologies) containing 10% FBS (Biochrom/Merck Millipore). […]
as §2, §3, §4, §5, §6, §7, §8

In another experiment the test system is HTEpCs. Kind of experiment: CXCL8 expression in HTEpCs (qRT-PCR). The settings on record: 5 h, 100 ng/mL Pam2Cys or Pam3Cys, two technical replicates, sheet Supp Fig 1g. The method, then: as §1, §2, §3, §4, §5, §6, §7, §8

As to Pam3Cys [reference compound], in the experiment with PHKs (100 ng/mL Pam2Cys or Pam3Cys, medium = 1, technical replicates, Fig 1e), the “CXCL8 expression normalized to actin” value was 1.261 and 1.177. Also, the CXCL8 fold induction with HNEpCs is 22.316 and 30.696; in the experiment with PBMCs it was 2.838 and 2.819; in the experiment with HTEpCs, 3.972 and 3.732.

B1: IL-1: interleukin-1α, 10 ng/mL, control in Fig 4b (protein, UniProt P01583 113-271, looked up)
Interleukin-1 alpha: SAPFSFLSNVKYNFMRIIKYEFILNDALNQSIIRANDQYLTAAALHNLDEAVKFDMGAYKSSKDDAKITVILRISKTQLYVTAQDEDQPVLLKEMPEIPKTITGSETNLLFFWETHGTKNYFTSVAHPNLFIATKQDYWVCLAGGPPSITDFQILENQA
Take B1: the “CXCL8 expression normalized to actin” value in the experiment with PHKs (2 µM human AMPs, 2 µM lugdunin, 0.8 µM other bacteriocins or their combinations, 50 ng/mL Pam2Cys, 10 ng/mL IL-1α, S. epidermidis CM, two technical replicates, Fig 4b) is 153.545 and 150.36.
